# Columns and labels:
# Type in all cases: functional
# [1] = tested on: Mus musculus; test: Antihyperglycemic activity in C57BL-6J ob/ob mouse type 2 diabetic model assessed as changes in plasma glucose level at 1000 mg/kg, po administered as single dose for 3 hrs
# [2] = tested on: Mus musculus; test: Antihyperglycemic activity in C57BL-6J ob/ob mouse type 2 diabetic model assessed as changes in plasma glucose level at 1000 mg/kg, po administered as single dose for 24 hrs
# [3] = tested on: Mus musculus; test: Antihyperglycemic activity in C57BL-6J ob/ob mouse type 2 diabetic model assessed as body weight per mouse at 1000 mg/kg, po administered as single dose for 24 hrs
# [4] = tested on: Mus musculus; test: Antihyperglycemic activity in C57BL-6J ob/ob mouse type 2 diabetic model assessed as food intake per mouse at 1000 mg/kg, po administered as single dose
# [5] = tested on: Mus musculus; test: Antihyperglycemic activity in C57BL-6J ob/ob mouse type 2 diabetic model assessed as changes in plasma glucose level at 1.09 mmol/kg, po administered as single dose for 3 hrs
# [6] = tested on: Mus musculus; test: Antihyperglycemic activity in C57BL-6J ob/ob mouse type 2 diabetic model assessed as changes in plasma glucose level at 1.09 mmol/kg, po administered as single dose for 24 hrs
# [7] = tested on: Mus musculus; test: Antihyperglycemic activity in C57BL-6J ob/ob mouse type 2 diabetic model assessed as body weight per mouse at 1.09 mmol/kg, po administered as single dose for 24 hrs
# [8] = tested on: Mus musculus; test: Antihyperglycemic activity in C57BL-6J ob/ob mouse type 2 diabetic model assessed as food intake per mouse at 1.09 mmol/kg, po administered as single dose
# [9] = tested on: Mus musculus; test: Antihyperglycemic activity in C57BL-6J ob/ob mouse type 2 diabetic model assessed as changes in plasma glucose level at 1.5 mmol/kg, po administered as single dose for 3 hrs
# [10] = tested on: Mus musculus; test: Antihyperglycemic activity in C57BL-6J ob/ob mouse type 2 diabetic model assessed as changes in plasma glucose level at 1.5 mmol/kg, po administered as single dose for 24 hrs
# [11] = tested on: Mus musculus; test: Antihyperglycemic activity in C57BL-6J ob/ob mouse type 2 diabetic model assessed as body weight per mouse at 1.5 mmol/kg, po administered as single dose for 24 hrs
# [12] = tested on: Mus musculus; test: Antihyperglycemic activity in C57BL-6J ob/ob mouse type 2 diabetic model assessed as food intake per mouse at 1.5 mmol/kg, po administered as single dose
SMILES,Activity [1] [mg/dL],Activity [2] [mg/dL],Activity [3] [g],Activity [4] [g],Activity [5] [mg/dL],Activity [6] [mg/dL],Activity [7] [g],Activity [8] [g],Activity [9] [mg/dL],Activity [10] [mg/dL],Activity [11] [g],Activity [12] [g]
Cc1coc2c(O)c3c(c(C)c12)[C@@H](C)CCC3 [CACALOL],-105.1,-13.4,45,4.6,-124,48.3,43.5,4.1,–,–,–,–
Cc1coc2c1[C@](C)(O)C1=C(CCC[C@@H]1C)C2=O [CACALONE],-105.1,-13.4,45,4.6,-3,29.5,41.4,4.8,–,–,–,–
Cc1coc2c1[C@@](C)(O)C1=C(CCC[C@@H]1C)C2=O [EPICACALONE],-105.1,-13.4,45,4.6,-42.4,30.9,43.3,4,–,–,–,–
CN(C)C(=N)NC(=N)N [METFORMIN],–,–,–,–,–,–,–,–,-151.8,76.1,43.2,4.5
